Measurements taken from US7612064B2, “Sulfopyrroles” (Takeda Pharmaceutical Company Limited, priority 2003, dated 2009).

Assays:
[1] = Hoechst 33342 nuclear staining; assay type: cell-based; conditions: for Hoechst 33342 nuclear staining score, H460: H460 cells; for Hoechst 33342 nuclear staining score, HeLa: HeLa cells; for Hoechst 33342 nuclear staining score, Jily: Jily cells; for Hoechst 33342 nuclear staining score, Jurkat: Jurkat cells; for Hoechst 33342 nuclear staining score, MRC5: MRC5 cells;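 for all read-outs here: apoptotic nuclei scored 0 none 1 weak under 50% of cells 2 strong over 50% of cells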
Outline: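 After a further 30 min incubation, plates were inspected on a standard inverted fluorescence microscope. The fraction of apoptotic nuclei and other apoptosis-specific morphology were scored as 0 for no activity, 1 for weak activity in less than 50% of the cells, and 2 for strong activity in more than 50% of the cells.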

HeLa = test: MTS proliferation assay; assay type: cell-based, human; conditions: 72 h
Outline: (§1)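 Cells exposed 72 h under culture conditions to compound at 10, 3, 1 and 0.3 μM final, added in medium with max 5% DMSO. MTS reagent then added for a further 3 h and absorbance read at 492 nm.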

Jurkat = test: MTS proliferation assay; assay type: cell-based, human; conditions: 72 h
Outline: as §1

MRC5 = test: MTS proliferation assay; assay type: cell-based; conditions: MRC5, 72 h
Outline: as §1

Jily = test: MTS proliferation assay; assay type: cell-based; conditions: 72 h
Outline: as §1

Compound	Hoechst 33342 nuclear staining score, H460 ([1]; conc 0.1)	Hoechst 33342 nuclear staining score, H460 ([1]; conc 0.3)	Hoechst 33342 nuclear staining score, H460 ([1]; conc 1)	Hoechst 33342 nuclear staining score, H460 ([1]; conc 3)	Hoechst 33342 nuclear staining score, HeLa ([1]; conc 0.1)	Hoechst 33342 nuclear staining score, HeLa ([1]; conc 0.3)	Hoechst 33342 nuclear staining score, HeLa ([1]; conc 1)	Hoechst 33342 nuclear staining score, HeLa ([1]; conc 3)	Hoechst 33342 nuclear staining score, Jily ([1]; conc 0.1)	Hoechst 33342 nuclear staining score, Jily ([1]; conc 0.3)	Hoechst 33342 nuclear staining score, Jily ([1]; conc 1)	Hoechst 33342 nuclear staining score, Jily ([1]; conc 3)	Hoechst 33342 nuclear staining score, Jurkat ([1]; conc 0.1)	Hoechst 33342 nuclear staining score, Jurkat ([1]; conc 0.3)	Hoechst 33342 nuclear staining score, Jurkat ([1]; conc 1)	Hoechst 33342 nuclear staining score, Jurkat ([1]; conc 3)	Hoechst 33342 nuclear staining score, MRC5 ([1]; conc 0.1)	Hoechst 33342 nuclear staining score, MRC5 ([1]; conc 0.3)	Hoechst 33342 nuclear staining score, MRC5 ([1]; conc 1)	Hoechst 33342 nuclear staining score, MRC5 ([1]; conc 3)	further results
COc1cc(-c2cc(-c3cccnc3)cn2S(=O)(=O)c2ccccc2Cl)cc(OC)c1OC [Example 84]	0	0	0	0	0	0	0	0	0	0	0	0	0	0	0	0	0	0	0	0	Hoechst 33342 nuclear staining score, PBLs ([1]; conc 0.1): 0; Hoechst 33342 nuclear staining score, PBLs ([1]; conc 0.3): 0; Hoechst 33342 nuclear staining score, PBLs ([1]; conc 1): 0; Hoechst 33342 nuclear staining score, PBLs ([1]; conc 3): 0; IC50 (HeLa): > 1000 nM; IC50 (Jurkat): > 1000 nM; IC50 (MRC5): > 1000 nM; IC50 (Jily): > 1000 nM
COc1cc(-c2cc(-c3cccnc3)cn2S(=O)(=O)c2c(Cl)cccc2Cl)cc(OC)c1OC [Example 85]	0	0	0	0	0	0	0	0	0	0	0	0	0	0	0	0	0	0	0	0	Hoechst 33342 nuclear staining score, PBLs ([1]; conc 0.1): 0; Hoechst 33342 nuclear staining score, PBLs ([1]; conc 0.3): 0; Hoechst 33342 nuclear staining score, PBLs ([1]; conc 1): 0; Hoechst 33342 nuclear staining score, PBLs ([1]; conc 3): 0; IC50 (HeLa): > 1000 nM; IC50 (Jurkat): > 1000 nM; IC50 (MRC5): > 1000 nM; IC50 (Jily): > 1000 nM
